Laboratory results published in patent publication US20260055398A1, “IMPROVED POLYMER DEGRADING ENZYMES” (CAMBRIDGE ENTERPRISE LIMITED, priority 2022, published 2026).

B1: RR11O2: metagenomic-derived esterase with promiscuous activity on PET; amino acid SEQ ID NO. 4; PDB 6ZZV (protein)
chain: MSENMNRPLDYSQKANWYQIPEVTKEFDTFYVYATEYILSSMEEGAPDYADMENAEMLEGAAAEYMLHATAYADSTNVFMPYYRQVGLRYAGVVWKRDGIFDASVAGMPYGDIVAALDYYFEHYNNGRPFIIAGHSQGSAIIKMVLKKYFVEHPDYYKRMIAAYPIGYAFTKDEFKTYPHMKFATGECDTGVIITWNTEGPKNREVNADTCVLQPGSMSINPLNWKLDDTYAPASMNLGSLFPNKDTGKLEIQDLGADAQVFPDRGVVVTHAMGEEMTEETAKVAAEFFGPDGRHGEDYVLFYCNIKDNVAKRISAYMANRK
modifications: RR1102

Columns and labels:
Assay type in all cases: biochemical
RR11O2 = assay: Kinetics of p-NP acyl ester hydrolysis by RR11O2; conditions: 50 mM Tris-HCl pH 8.0, 0.3% (v/v) triton X-100, 22° C.
Method: (B) Detail of RR11O2's cavity (in blue) and the catalytic triad (in cyan) S149, D311 and H308. (C) The catalytic efficiencies of RR11O2 measured against p-NP acyl esters [acetate (C2), butyrate (C4), hexanoate (C6), octanoate (C8), decanoate (C10), dodecanoate (C12), myristate (C14) and palmitate (C16)]. The reactions were performed in buffer containing 50 mM Tris-HCl PH 8.0 and 0.3% (v/v) Triton X-100 at 22° C.
(§1) The activity of all esterase hits was determined via hydrolysis of p-nitrophenol (p-NP) carboxylesterase by monitoring the release of p-nitrophenol. The amount of p-nitrophenol released was quantified by absorbance at 405 nm (εpNP=17,000 M−1.cm−1) using a Spectramax 190 microplate reader (Molecular Devices). Unless otherwise indicated, the measurements were performed at 22° C. in triplicate using 96-well plates with a final assay volume of 100 μL in 50 mM Tris-HCl pH 8.0 and 0.3% (v/v) triton X-100. The substrate specificity was investigated by measuring the hydrolysis of the following p-NP-fatty acyl esters: butyrate (C4), hexanoate (C6 from TCI Chemicals, H0484), octanoate (C8), decanoate (C10), dodecanoate (C12), myristate (C14) and palmitate (C16). The kinetic parameters for each substrate were obtained by non-linear regression of the data using the Michaelis-Menten equation: V=Vmax*[S]/(Km+[S]), where V is the rate, Vmax is the maximum rate achieved by the reaction, S is the substrate concentration, and Km is the Michaelis-Menten constant. The effect of the pH was evaluated by measuring the enzyme activity at pH 4.0 to 11.0 in 50 mM of the following buffers containing 0.3% (v/v) triton X-100: sodium citrate at pH 4.0, pH 5.0 and 6.0; phosphate at pH 6.0, 7.0, 8.0; Tris-HCl at pH 7.0, 8.0 and 9.0; N-cyclohexyl-3-aminopropanesulfonic acid (CAPS) at pH 9.5, 10.0, 11.0.
The enzyme activity of purified RR11O2, Bla-CI5En2 and IsPETase was tested against different p-NP acyl esters [acetate (C2), butyrate (C4), hexanoate (C6), octanoate (C8), decanoate (C10), dodecanoate (C12) and myristate (C14)]. The final enzyme concentration of the enzymes in the reaction depended on the p-NP acyl ester used as substrate. Kinetics were measured at enzyme concentrations of RR11O2, Bla-CI5En2 and IsPETase between 31.25 μM to 23.2 μM, 2.5 nM to 50 nM, and 50 nM to 4.8 μM, respectively. The p-NP acyl ester substrates were used in a concentration range between 0 and 4 mM. The kinetic parameters Vmax and Km were calculated using Kaleidagraph by non-linear lest square fits of initial rates to the Michaelis-Menten equation. […] The released p-nitrophenol was monitored spectro-photometrically at 405 nm (εpNP=18.300 M−1.cm−1) by taking time points in 20 second intervals in a SpectraMax® M3 Microplate Reader (Molecular Devices).

N20O1 = assay: Kinetics of p-NP acyl ester hydrolysis by N20O1; conditions: 50 mM Tris-HCl pH 8.0, 0.3% (v/v) triton X-100, 22° C.
Method: as §1, with “11.0. […]” for “11.0.”

[1] = Enzymatic degradation of PET (nanoparticles, film), HPLC of released TPA and MHET
Excerpt: (A) Sequence network of currently known PETases and a novel esterase metagenomic-derived, RR11O2. […] Grey nodes represent sequences extracted from MGnify and NCBI. Red node represents RR11O2, blue nodes represent known PETases, green and orange nodes represent reported cutinases and esterases showing PET activity, respectively, and light blue nodes represent described polyester degrading enzymes in the literature. To putatively characterise sequence clusters, the identification of PETases, cutinases, esterases and RR11O2 in the network helped to define the potential clusters. The cluster of RR11O2, CI5En2 and PETase are written in grey. (B) PET hydrolases catalyze the depolymerization of poly(ethylene terephthalate) (PET) to bis(2-hydroxyethyl) terephthalate (BHET), mono(2-hydroxyethyl)-terephthalic (MHET) or terephthalic acid (TPA) and ethylene glycol (EG). During characterizations via high-performance liquid chromatography (HPLC) MHET and TPA have been identified as main products. […] Absorbance at 250 nm was monitored.
(A) Enrichment of variants with higher activity compared to wildtype after sorting the ep-PCR library of CI5En2. […] Amount of the released monomers TPA and MHET was determined via HPLC and corresponding standard curves for TPA and MHET. […]
HPLC analysis of the products released after one week incubation at 30° C. using 6 μM pExp-bla-CI5En2-WT. Absorbance at 250 nm was monitored which detects released TPA and MHET.
To detect the release of TPA, MHET and BHET in the presence of various enzymes, aliquots were taken from reaction mixtures, turnover was stopped by addition of an equal volume of methanol containing 0.5% formic acid, centrifuged (16,100×g, 15 min) and analysed by HPLC (1260 Infinity II, Agilent; Nucleodur C18 analytical EC standard column (5 μm, 4×125 mm, Macherey-Nagel, Germany). As the mobile phase mixtures of buffer A (0.1% formic acid in distilled water) and buffer C (distilled water), as well as buffer D (acetonitrile) were used at a flow rate of 1 mL/min. Buffer A was kept at 20% for the whole run. […]

Row | Molecule | Km (RR11O2) [µM] | kcat (RR11O2) [s⁻¹] | Km (N20O1) [µM] | kcat (N20O1) [s⁻¹] | promiscuous activity on PET [1]
1 | CC(=O)Oc1ccc([N+](=O)[O-])cc1 [Substrate 3a, p-NP acetate] | 30000 | 390 | 3800 | 520 | –
2 | CCCC(=O)Oc1ccc([N+](=O)[O-])cc1 [Substrate 3b, p-NP butyrate] | 2200 | 46 | 2200 | 630 | –
3 | CCCCCC(=O)Oc1ccc([N+](=O)[O-])cc1 [Substrate 3c, p-NP hexanoate] | 720 | 35 | 1400 | 250 | –
4 | CCCCCCCC(=O)Oc1ccc([N+](=O)[O-])cc1 [Substrate 3d, p-NP octanoate] | 370 | 11 | 1100 | 370 | –
5 | CCCCCCCCCC(=O)Oc1ccc([N+](=O)[O-])cc1 [Substrate 3e, p-NP decanoate] | 2000 | 5.4 | 1500 | 31 | –
6 | CCCCCCCCCCCC(=O)Oc1ccc([N+](=O)[O-])cc1 [Substrate 3f, p-NP dodecanoate] | 2800 | 0.78 | 2000 | 0.5 | –
7 | CCCCCCCCCCCCCC(=O)Oc1ccc([N+](=O)[O-])cc1 [Substrate 3g, p-NP myristate] | 1500 | 0.039 | 4400 | 0.042 | –
8 | CCCCCCCCCCCCCCCC(=O)Oc1ccc([N+](=O)[O-])cc1 [Substrate 3h, p-NP palmitate] | 7400 | 0.017 | 4800 | 0.016 | –
9 | B1 | – | – | – | – | exhibits promiscuous activity on PET
